pIC50: −log10 of the molar value. Where two headings read alike, the source gives them in different places.

For one assay, the target named is T1, NAMPT (Homo sapiens, UniProt P43490).
T1 construct: His tag; host or cells: E. coli
Briefly: Biochemical inhibition assay: NAMPT enzymatic reaction, NMN quantified by mass spectrometry. The note with it: read-out: Biochem IC50. Summed up:
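Inhibition of E. coli-expressed His-tagged human NAMPT, measured as NMN formation by mass spectrometry after a 30 min room-temperature reaction containing 1 μM NAM, 100 μM PRPP and 2.5 mM ATP.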

Another assay concerns A2780 cells. Briefly: In-vitro cell proliferation assay (SRB), A2780 cells. It counts as cell-based. The note with it: Homo sapiens, A2780, 72 h, A2780 cells, 72 hours, read-out: A2780 IC50. Put shortly: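 Growth inhibition was derived from background-corrected SRB absorbance (570 nm), measured on cells fixed in 6% TCA after three days of compound treatment under 5% CO2 at 37° C.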

T1 sequence (P43490 whole entry): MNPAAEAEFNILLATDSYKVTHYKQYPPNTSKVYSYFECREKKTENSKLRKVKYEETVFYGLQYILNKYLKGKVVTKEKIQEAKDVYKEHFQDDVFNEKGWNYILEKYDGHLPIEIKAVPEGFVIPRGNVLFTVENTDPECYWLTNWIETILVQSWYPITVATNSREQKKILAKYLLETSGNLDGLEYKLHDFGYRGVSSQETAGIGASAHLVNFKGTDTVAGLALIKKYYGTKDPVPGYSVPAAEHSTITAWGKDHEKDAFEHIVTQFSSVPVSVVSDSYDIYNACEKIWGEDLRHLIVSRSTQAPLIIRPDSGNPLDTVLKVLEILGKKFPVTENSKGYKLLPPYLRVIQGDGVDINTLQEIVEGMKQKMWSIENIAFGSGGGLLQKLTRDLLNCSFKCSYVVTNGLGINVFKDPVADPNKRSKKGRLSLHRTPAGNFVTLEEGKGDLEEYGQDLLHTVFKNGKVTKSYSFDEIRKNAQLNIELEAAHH

Turning to `Cc1ccc(S(=O)(=O)c2ccc(CNC(=O)c3cnc4[nH]ncc4c3)cc2)cn1` [N-{[4-(6-methylpyridine-3-sulfonyl)phenyl]methyl}-1H-pyrazolo[3,4-b]pyridine-5-carboxamide], the pIC50 (commonly the negative decadic logarithm of the IC50, by convention in mol/L) is 7.62 at NAMPT (NAMPT enzymatic assay) and 7.67 in the assay with A2780 cells (SRB).

Take `COc1ccc2cc(S(=O)(=O)c3ccc(CNC(=O)c4cc5cnccc5[nH]4)cc3)ccc2c1` [N-{[4-(6-methoxynaphthalene-2-sulfonyl)phenyl]methyl}-1H-pyrrolo[3,2-c]pyridine-2-carboxamide]: the pIC50 on NAMPT (NAMPT enzymatic assay) was 8.00; in the assay with A2780 cells (SRB) it was 8.29.

On to `CN(C)C(=O)c1ccccc1S(=O)(=O)c1ccc(CNC(=O)c2cc3ccncc3s2)cc1`, for which the pIC50 at NAMPT (NAMPT enzymatic assay) and in the assay with A2780 cells (SRB) was 6.00 to 7.00 in each case.

`COc1cc(F)cc(S(=O)(=O)c2ccc(CNC(=O)c3cc4ccncc4o3)cc2)c1` [N-({4-[(3-fluoro-5-methoxybenzene)sulfonyl]phenyl}methyl)furo[2,3-c]pyridine-2-carboxamide]: the pIC50 on NAMPT (NAMPT enzymatic reaction) was 7.76; with A2780 cells (SRB), 8.48.

For the compound `Cc1cncc(S(=O)(=O)c2ccc(CNC(=O)c3ccc4nccn4c3)cc2)c1` [N-{[4-(5-methylpyridine-3-sulfonyl)phenyl]methyl}imidazo[1,2-a]pyridine-6-carboxamide], the pIC50 on NAMPT (NAMPT enzymatic assay) is 7.43; with A2780 cells (SRB) it was 8.15.

For `Cc1ccc(S(=O)(=O)c2ccc(CNC(=O)c3ccc4nccn4c3)cc2)c(C)c1` [N-({4-[(2,4-dimethylbenzene)sulfonyl]phenyl}methyl)imidazo[1,2-a]pyridine-6-carboxamide], the results for the pIC50 at NAMPT (NAMPT enzymatic reaction) and with A2780 cells (SRB) were 7.67 and 7.49, respectively.

Regarding `O=C(NCc1ccc(S(=O)(=O)c2cccc(OC(F)F)c2)cc1)c1cc2ccncc2o1`, the pIC50 is 8.55 on NAMPT (NAMPT enzymatic assay) and 8.52 in the assay on A2780 cells (SRB).

Turning to `O=C(NCc1ccc(S(=O)(=O)c2cccc(C(F)(F)F)c2)cc1)c1cc2cnccc2[nH]1` [N-[(4-{[3-(trifluoromethyl)benzene]sulfonyl}phenyl)methyl]-1H-pyrrolo[3,2-c]pyridine-2-carboxamide], the pIC50 is 8.05 on NAMPT (NAMPT enzymatic reaction) and 8.52 in the assay on A2780 cells (SRB assay).

Regarding `CC(=O)c1ccccc1S(=O)(=O)c1ccc(CNC(=O)c2cc3cnccc3[nH]2)cc1` [N-({4-[(2-acetylbenzene)sulfonyl]phenyl}methyl)-1H-pyrrolo[3,2-c]pyridine-2-carboxamide], the pIC50 was 8.22 on NAMPT (NAMPT enzymatic reaction) and 8.40 in the assay with A2780 cells (SRB assay).

`O=C(NCc1ccc(S(=O)(=O)c2cncc(N3CCCC3)c2)cc1)c1cnc2[nH]ncc2c1` [N-({4-[5-(pyrrolidin-1-yl)pyridine-3-sulfonyl]phenyl}methyl)-1H-pyrazolo[3,4-b]pyridine-5-carboxamide]: the pIC50 at NAMPT (NAMPT enzymatic assay) was 7.75; with A2780 cells (SRB), 8.40.

For the compound `CCOc1ccc(Cl)cc1S(=O)(=O)c1ccc(CNC(=O)c2cc3ccncc3s2)cc1`, the pIC50 is 8.57 at NAMPT (NAMPT enzymatic reaction) and 9.30 in the assay with A2780 cells (SRB).

For `Cn1ncc2cccc(S(=O)(=O)c3ccc(CNC(=O)c4cc5ccncc5o4)cc3)c21` [N-{[4-(1-methyl-1H-indazole-7-sulfonyl)phenyl]methyl}furo[2,3-c]pyridine-2-carboxamide], the pIC50 on NAMPT (NAMPT enzymatic assay) is 7.94; in the assay with A2780 cells (SRB), 7.56.

Turning to `CCCS(=O)(=O)Nc1cccc(S(=O)(=O)c2ccc(CNC(=O)c3cnc4nccn4c3)cc2)c1`, the pIC50 on NAMPT (NAMPT enzymatic assay) is 8.64; in the assay on A2780 cells (SRB), 7.06.

As to `CCCOc1cccc(S(=O)(=O)c2ccc(CNC(=O)c3cc4cnccc4[nH]3)cc2)c1`, the pIC50 at NAMPT (NAMPT enzymatic reaction) is 7.99; in the assay on A2780 cells (SRB), 7.91.

For the compound `CC(=O)c1ccccc1NS(=O)(=O)c1ccc(CNC(=O)c2cc3cnccc3[nH]2)cc1` [N-({4-[(2-acetylphenyl)sulfamoyl]phenyl}methyl)-1H-pyrrolo[3,2-c]pyridine-2-carboxamide], the pIC50 on NAMPT (NAMPT enzymatic reaction) and in the assay on A2780 cells (SRB assay) was 8.30 each time.

With `COc1cc(-n2cccn2)ccc1S(=O)(=O)c1ccc(CNC(=O)c2cc3ccncc3s2)cc1` [N-[(4-{[2-methoxy-4-(1H-pyrazol-1-yl)benzene]sulfonyl}phenyl)methyl]thieno[2,3-c]pyridine-2-carboxamide], the pIC50 is 8.30 at NAMPT (NAMPT enzymatic reaction) and 8.59 in the assay with A2780 cells (SRB assay).

For the compound `COc1ccc(S(=O)(=O)c2ccc(CNC(=O)c3cc4ccncc4s3)cc2)cc1Cl` [N-({4-[(3-chloro-4-methoxybenzene)sulfonyl]phenyl}methyl)thieno[2,3-c]pyridine-2-carboxamide], the pIC50 at NAMPT (NAMPT enzymatic reaction) is 8.30; with A2780 cells (SRB) it was 8.80.

As to `O=C(NCc1ccc(S(=O)(=O)c2cccc(N3CCCC3)c2)cc1)c1ccc2ncsc2c1`, the pIC50 is 8.06 on NAMPT (NAMPT enzymatic assay) and 5.00 to 6.00 in the assay on A2780 cells (SRB).

Regarding `O=C(NCc1ccc(S(=O)(=O)c2cccc(C(F)(F)F)c2Cl)cc1)c1cc2ccncc2o1`, the figures for the pIC50 on NAMPT (NAMPT enzymatic assay) and in the assay with A2780 cells (SRB) were 7.74 and 7.55, respectively.

For `CC(C)NC(=O)c1cccc(S(=O)(=O)c2ccc(CNC(=O)c3cc4ccncc4o3)cc2)c1`, the pIC50 is 7.82 on NAMPT (NAMPT enzymatic assay) and 7.80 with A2780 cells (SRB).

In the case of `Cn1ncc(S(=O)(=O)c2ccc(CNC(=O)c3cnc4[nH]ncc4c3)cc2)c1C(F)(F)F` [N-({4-[1-methyl-5-(trifluoromethyl)-1H-pyrazole-4-sulfonyl]phenyl}methyl)-1H-pyrazolo[3,4-b]pyridine-5-carboxamide], the pIC50 at NAMPT (NAMPT enzymatic assay) was 7.27; in the assay on A2780 cells (SRB), 7.36.

For `O=C(NCc1ccc(S(=O)(=O)c2ccc(C(F)(F)F)cc2F)cc1)c1ccc2nccn2c1`, the results for the negative logarithm of the IC50 (pIC50) at NAMPT (NAMPT enzymatic assay) and in the assay with A2780 cells (SRB) were 7.81 and 7.80, respectively.

With `Cc1cc(Cl)cc(S(=O)(=O)c2ccc(CNC(=O)c3ccc4nccn4c3)cc2)c1`, the pIC50 was 8.19 at NAMPT (NAMPT enzymatic reaction) and 8.70 with A2780 cells (SRB).

In the case of `O=C(NCc1ccc(S(=O)(=O)c2ccc3c(c2)OCO3)cc1)c1cnc2nccn2c1` [N-{[4-(2H-1,3-benzodioxole-5-sulfonyl)phenyl]methyl}imidazo[1,2-a]pyrimidine-6-carboxamide], the pIC50 on NAMPT (NAMPT enzymatic assay) was 8.52; with A2780 cells (SRB) it was 7.93.

On to `O=C(NCc1ccc(S(=O)(=O)c2cccc3cc[nH]c23)cc1)c1cc2ccncc2s1` [N-{[4-(1H-indole-7-sulfonyl)phenyl]methyl}thieno[2,3-c]pyridine-2-carboxamide], for which the figures for the pIC50 at NAMPT (NAMPT enzymatic reaction) and with A2780 cells (SRB assay) were 8.52 and 8.57, respectively.

On to `Cc1cc(C)c(S(=O)(=O)c2ccc(CNC(=O)c3ccc4nccn4c3)cc2)cc1C` [N-({4-[(2,4,5-trimethylbenzene)sulfonyl]phenyl}methyl)imidazo[1,2-a]pyridine-6-carboxamide], for which the negative-log IC50 (pIC50) on NAMPT (NAMPT enzymatic reaction) is 8.03; in the assay on A2780 cells (SRB), 7.85.

Take `COc1ccccc1S(=O)(=O)c1ccc(CNC(=O)c2cc3ccncc3o2)cc1` [N-({4-[(2-methoxybenzene)sulfonyl]phenyl}methyl)furo[2,3-c]pyridine-2-carboxamide]: the pIC50 on NAMPT (NAMPT enzymatic reaction) was 7.72; in the assay with A2780 cells (SRB), 7.58.

In the case of `O=C(NCc1ccc(S(=O)(=O)c2ccccc2)cc1)c1nc2ccncc2s1` [N-{[4-(benzenesulfonyl)phenyl]methyl}-[1,3]thiazolo[5,4-c]pyridine-2-carboxamide], the pIC50 on NAMPT (NAMPT enzymatic assay) is 6.66; with A2780 cells (SRB), less than 5.00.

In the case of `COc1cc(F)ccc1S(=O)(=O)c1ccc(CNC(=O)c2cnc3nccn3c2)cc1`, the pIC50 on NAMPT (NAMPT enzymatic reaction) was 7.72; with A2780 cells (SRB) it was 7.13.

As to `Cc1ccc(F)c(S(=O)(=O)c2ccc(CNC(=O)c3cc4ccncc4o3)cc2)c1`, the pIC50 at NAMPT (NAMPT enzymatic reaction) is 8.23; in the assay with A2780 cells (SRB), 7.87.

Take `O=C(NCc1ccc(S(=O)(=O)c2cccc3ccccc23)cc1)c1cnc2[nH]ncc2c1` [N-{[4-(naphthalene-1-sulfonyl)phenyl]methyl}-1H-pyrazolo[3,4-b]pyridine-5-carboxamide]: the pIC50 is 8.04 on NAMPT (NAMPT enzymatic assay) and 8.43 with A2780 cells (SRB).

With `COc1ccc(S(=O)(=O)c2ccc(CNC(=O)c3cc4ccncc4o3)cc2)c(C)c1` [N-({4-[(4-methoxy-2-methylbenzene)sulfonyl]phenyl}methyl)furo[2,3-c]pyridine-2-carboxamide], the pIC50 at NAMPT (NAMPT enzymatic reaction) is 7.67; in the assay with A2780 cells (SRB) it was 7.45.

With `O=C(NCc1ccc(S(=O)(=O)c2cccc3c2Oc2ccccc2S3)cc1)c1cnc2[nH]ncc2c1` [N-{[4-(phenoxathiine-4-sulfonyl)phenyl]methyl}-1H-pyrazolo[3,4-b]pyridine-5-carboxamide], the results for the pIC50 at NAMPT (NAMPT enzymatic assay) and in the assay with A2780 cells (SRB) were 7.83 and 7.69, respectively.

On to `COc1cc(Cl)cc(S(=O)(=O)c2ccc(CNC(=O)c3cc4ccncc4o3)cc2)c1`, for which the values for the pIC50 at NAMPT (NAMPT enzymatic reaction) and in the assay with A2780 cells (SRB) were 7.58 and 8.82, respectively.

Consider `O=C(NCc1ccc(S(=O)(=O)c2cc(F)ccc2Cl)cc1)c1cc2cnccc2[nH]1`, for which the pIC50 is 7.55 at NAMPT (NAMPT enzymatic reaction) and 7.92 in the assay with A2780 cells (SRB).

With `CCCCOc1ccc(S(=O)(=O)c2ccc(CNC(=O)c3cnc4[nH]ncc4c3)cc2)cc1` [N-({4-[(4-butoxybenzene)sulfonyl]phenyl}methyl)-1H-pyrazolo[3,4-b]pyridine-5-carboxamide], the pIC50 on NAMPT (NAMPT enzymatic reaction) was 7.56; with A2780 cells (SRB), 7.65.

With `COc1ccc(OC(F)(F)F)cc1S(=O)(=O)c1ccc(CNC(=O)c2cc3cnccc3[nH]2)cc1`, the pIC50 at NAMPT (NAMPT enzymatic assay) is 7.32; in the assay with A2780 cells (SRB), 8.18.

On to `O=C(NCc1ccc(S(=O)(=O)c2ccccc2Oc2ccccc2)cc1)c1cc2ccncc2s1` [N-({4-[(2-phenoxybenzene)sulfonyl]phenyl}methyl)thieno[2,3-c]pyridine-2-carboxamide], for which the values for the pIC50 at NAMPT (NAMPT enzymatic reaction) and with A2780 cells (SRB assay) were 7.96 and 7.16, respectively.

For the compound `Cc1cc(Cl)cc(S(=O)(=O)c2ccc(CNC(=O)c3cnc4[nH]ncc4c3)cc2)c1`, the figures for the pIC50 at NAMPT (NAMPT enzymatic reaction) and in the assay on A2780 cells (SRB) were 8.21 and 8.59, respectively.

Values taken from US12336981B2, “Compounds and compositions for the inhibition of NAMPT” (Valo Health, Inc., priority 2010, dated 2025).
